Measured values reported in PubChem BioAssay (NCI).
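Assay format: 96-well plates, 48-hour exposure. TGI denotes the concentration required for complete inhibition of growth.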

Legend:
Assay in all cases: NCI anticancer screen, dose series, 48 h
HCT-116 colon = test system: HCT-116 colon
RPMI-8226 leukemia = test system: RPMI-8226 leukemia
SF-539 CNS = test system: SF-539 CNS
HOP-62 NSCLC = test system: HOP-62 NSCLC
IGROV1 ovarian = test system: IGROV1 ovarian
MALME-3M melanoma = test system: MALME-3M melanoma
HOP-92 NSCLC = test system: HOP-92 NSCLC
SW-620 colon = test system: SW-620 colon
TK-10 renal = test system: TK-10 renal
SF-295 CNS = test system: SF-295 CNS
SK-MEL-2 melanoma = test system: SK-MEL-2 melanoma
PC-3 prostate = test system: PC-3 prostate
HL-60(TB) leukemia = test system: HL-60(TB) leukemia
HCT-15 colon = test system: HCT-15 colon
UACC-62 melanoma = test system: UACC-62 melanoma
KM12 colon = test system: KM12 colon
NCI-H522 lung = test system: NCI-H522 lung
OVCAR-5 ovarian = test system: OVCAR-5 ovarian
MCF7 breast = test system: MCF7 breast
NCI-H23 lung = test system: NCI-H23 lung
UO-31 renal = test system: UO-31 renal
HT29 colon = test system: HT29 colon
MDA-N = test system: MDA-N
LOX IMVI melanoma = test system: LOX IMVI melanoma
SK-OV-3 ovarian = test system: SK-OV-3 ovarian
SN12C renal = test system: SN12C renal
NCI/ADR-RES ovarian = test system: NCI/ADR-RES ovarian
SK-MEL-5 melanoma = test system: SK-MEL-5 melanoma
SNB-19 CNS = test system: SNB-19 CNS
SNB-75 CNS = test system: SNB-75 CNS
U251 CNS = test system: U251 CNS
OVCAR-4 ovarian = test system: OVCAR-4 ovarian
ACHN renal = test system: ACHN renal
SK-MEL-28 melanoma = test system: SK-MEL-28 melanoma
MDA-MB-231 breast = test system: MDA-MB-231 breast
HCC-2998 colon = test system: HCC-2998 colon
OVCAR-3 ovarian = test system: OVCAR-3 ovarian
T-47D breast = test system: T-47D breast
A549 NSCLC = test system: A549 NSCLC
NCI-H226 lung = test system: NCI-H226 lung
CAKI-1 renal = test system: CAKI-1 renal
A498 renal = test system: A498 renal
786-0 renal = test system: 786-0 renal
MDA-MB-435 = test system: MDA-MB-435
COLO 205 colon = test system: COLO 205 colon
MOLT-4 leukemia = test system: MOLT-4 leukemia
OVCAR-8 ovarian = test system: OVCAR-8 ovarian
K-562 leukemia = test system: K-562 leukemia
EKVX NSCLC = test system: EKVX NSCLC
CCRF-CEM leukemia = test system: CCRF-CEM leukemia
M14 melanoma = test system: M14 melanoma
UACC-257 melanoma = test system: UACC-257 melanoma
BT-549 breast = test system: BT-549 breast
SF-268 CNS = test system: SF-268 CNS
NCI-H460 lung = test system: NCI-H460 lung
RXF 393 renal = test system: RXF 393 renal
HS 578T breast = test system: HS 578T breast
DU-145 prostate = test system: DU-145 prostate

For `C[C@H]1[C@H](N2CCCC2)O[Si](C(C)(C)C)(C(C)(C)C)[C@@H]1C`, the TGI (HCT-116 colon) was greater than 100 µM, the TGI (RPMI-8226 leukemia) was greater than 100 µM and the TGI (SF-539 CNS) was greater than 100 µM. For the same molecule, the TGI (HOP-62 NSCLC) was greater than 100 µM, the TGI (IGROV1 ovarian) was greater than 100 µM and the TGI (MALME-3M melanoma) was greater than 100 µM. For the same molecule, the TGI (HOP-92 NSCLC) was 4.7 µM, the TGI (SW-620 colon) was greater than 100 µM and the TGI (TK-10 renal) was greater than 100 µM. The TGI (SF-295 CNS) was greater than 100 µM, the TGI (SK-MEL-2 melanoma) was greater than 100 µM and the TGI (PC-3 prostate) was greater than 100 µM. It also gave a TGI (HL-60(TB) leukemia) of 48.5 µM, a TGI (HCT-15 colon) greater than 100 µM and a TGI (UACC-62 melanoma) greater than 100 µM. The TGI (KM12 colon) was greater than 100 µM, the TGI (NCI-H522 lung) was greater than 100 µM and the TGI (OVCAR-5 ovarian) was greater than 100 µM. It also gave a TGI (MCF7 breast) greater than 100 µM, a TGI (NCI-H23 lung) greater than 100 µM and a TGI (UO-31 renal) greater than 100 µM. The TGI (HT29 colon) was greater than 100 µM, the TGI (MDA-N) was greater than 100 µM and the TGI (LOX IMVI melanoma) was greater than 100 µM. The TGI (SK-OV-3 ovarian) was greater than 100 µM, the TGI (SN12C renal) was greater than 100 µM and the TGI (NCI/ADR-RES ovarian) was greater than 100 µM. It also gave a TGI (SK-MEL-5 melanoma) greater than 100 µM, a TGI (SNB-19 CNS) greater than 100 µM and a TGI (SNB-75 CNS) greater than 100 µM. It also gave a TGI (U251 CNS) greater than 100 µM, a TGI (OVCAR-4 ovarian) greater than 100 µM and a TGI (ACHN renal) greater than 100 µM. For the same molecule, the TGI (SK-MEL-28 melanoma) was greater than 100 µM, the TGI (MDA-MB-231 breast) was greater than 100 µM and the TGI (HCC-2998 colon) was greater than 100 µM. For the same molecule, the TGI (OVCAR-3 ovarian) was greater than 100 µM, the TGI (T-47D breast) was greater than 100 µM and the TGI (A549 NSCLC) was greater than 100 µM. The TGI (NCI-H226 lung) was greater than 100 µM, the TGI (CAKI-1 renal) was greater than 100 µM and the TGI (A498 renal) was greater than 100 µM. For the same molecule, the TGI (786-0 renal) was greater than 100 µM, the TGI (MDA-MB-435) was greater than 100 µM and the TGI (COLO 205 colon) was greater than 100 µM. It also gave a TGI (MOLT-4 leukemia) greater than 100 µM, a TGI (OVCAR-8 ovarian) greater than 100 µM and a TGI (K-562 leukemia) greater than 100 µM. For the same molecule, the TGI (EKVX NSCLC) was greater than 100 µM, the TGI (CCRF-CEM leukemia) was greater than 100 µM and the TGI (M14 melanoma) was greater than 100 µM. The TGI (UACC-257 melanoma) was greater than 100 µM and the TGI (BT-549 breast) was greater than 100 µM.
Molecule `NC1=NC(=O)[C@H](Cc2c[nH]c3ccccc23)N1C(=O)OCc1ccccc1` has a TGI (HCT-116 colon) greater than 100 µM, a TGI (HOP-62 NSCLC) greater than 100 µM and a TGI (SF-268 CNS) greater than 100 µM. The TGI (IGROV1 ovarian) was greater than 100 µM, the TGI (MALME-3M melanoma) was greater than 100 µM and the TGI (SW-620 colon) was greater than 100 µM. For the same molecule, the TGI (TK-10 renal) was greater than 100 µM, the TGI (SF-295 CNS) was greater than 100 µM and the TGI (NCI-H460 lung) was greater than 100 µM. The TGI (SK-MEL-2 melanoma) was greater than 100 µM, the TGI (RXF 393 renal) was greater than 100 µM and the TGI (PC-3 prostate) was greater than 100 µM. The TGI (HL-60(TB) leukemia) was greater than 100 µM, the TGI (HCT-15 colon) was greater than 100 µM and the TGI (UACC-62 melanoma) was greater than 100 µM. The TGI (KM12 colon) was greater than 100 µM, the TGI (NCI-H522 lung) was greater than 100 µM and the TGI (OVCAR-5 ovarian) was greater than 100 µM. The TGI (HS 578T breast) was greater than 100 µM, the TGI (MCF7 breast) was greater than 100 µM and the TGI (NCI-H23 lung) was greater than 100 µM. The TGI (UO-31 renal) was greater than 100 µM, the TGI (HT29 colon) was greater than 100 µM and the TGI (MDA-N) was greater than 100 µM. For the same molecule, the TGI (LOX IMVI melanoma) was greater than 100 µM, the TGI (SN12C renal) was greater than 100 µM and the TGI (NCI/ADR-RES ovarian) was greater than 100 µM. It also gave a TGI (SK-MEL-5 melanoma) greater than 100 µM, a TGI (SNB-19 CNS) greater than 100 µM and a TGI (SNB-75 CNS) greater than 100 µM. For the same molecule, the TGI (U251 CNS) was greater than 100 µM, the TGI (OVCAR-4 ovarian) was greater than 100 µM and the TGI (ACHN renal) was greater than 100 µM. It also gave a TGI (SK-MEL-28 melanoma) greater than 100 µM, a TGI (MDA-MB-231 breast) greater than 100 µM and a TGI (HCC-2998 colon) greater than 100 µM. The TGI (OVCAR-3 ovarian) was greater than 100 µM, the TGI (NCI-H226 lung) was greater than 100 µM and the TGI (CAKI-1 renal) was greater than 100 µM. For the same molecule, the TGI (A498 renal) was greater than 100 µM, the TGI (786-0 renal) was greater than 100 µM and the TGI (MDA-MB-435) was greater than 100 µM. For the same molecule, the TGI (COLO 205 colon) was greater than 100 µM, the TGI (DU-145 prostate) was greater than 100 µM and the TGI (MOLT-4 leukemia) was greater than 100 µM. The TGI (OVCAR-8 ovarian) was greater than 100 µM, the TGI (K-562 leukemia) was greater than 100 µM and the TGI (EKVX NSCLC) was greater than 100 µM. It also gave a TGI (UACC-257 melanoma) greater than 100 µM and a TGI (BT-549 breast) greater than 100 µM.
